Data reported in patent US9815851B2, “Pyrrolo carboxamides as modulators of orphan nuclear receptor RAR-related orphan receptor-gamma (RORγ, NR1F3) activity and for the treatment of chronic inflammatory and autoimmune diseases” (PHENEX PHARMACEUTICALS AG, priority 2011, dated 2017).
Read-outs that look alike come from different tables or passages of the source.

Legend:
[1] = biological target: T1, RORγ ligand binding domain (LBD) (Homo sapiens, UniProt P51449); experiment: TR-FRET Activity Assay (ligand sensing, RORγ-LBD / coactivator peptide interaction, LANCE); type: biochemical
T1 construct: made in house; host or cells: E. coli BL-21 (BL3), vector pDEST15
T1 sequence (P51449 269-508 limits assumed): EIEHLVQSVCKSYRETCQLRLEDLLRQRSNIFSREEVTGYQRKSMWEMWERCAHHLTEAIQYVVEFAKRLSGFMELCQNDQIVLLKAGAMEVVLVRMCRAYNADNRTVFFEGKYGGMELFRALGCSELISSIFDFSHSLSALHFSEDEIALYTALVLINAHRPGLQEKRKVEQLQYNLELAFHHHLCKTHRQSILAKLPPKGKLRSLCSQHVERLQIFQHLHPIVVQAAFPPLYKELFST

[2] = biological target: T2, RORγ (UniProt P51449); experiment: RORγ Gal4 Reporter Gene Assay in 293T cells (firefly and renilla luciferase); type: cell-based, human
T2 sequence (P51449 1-518): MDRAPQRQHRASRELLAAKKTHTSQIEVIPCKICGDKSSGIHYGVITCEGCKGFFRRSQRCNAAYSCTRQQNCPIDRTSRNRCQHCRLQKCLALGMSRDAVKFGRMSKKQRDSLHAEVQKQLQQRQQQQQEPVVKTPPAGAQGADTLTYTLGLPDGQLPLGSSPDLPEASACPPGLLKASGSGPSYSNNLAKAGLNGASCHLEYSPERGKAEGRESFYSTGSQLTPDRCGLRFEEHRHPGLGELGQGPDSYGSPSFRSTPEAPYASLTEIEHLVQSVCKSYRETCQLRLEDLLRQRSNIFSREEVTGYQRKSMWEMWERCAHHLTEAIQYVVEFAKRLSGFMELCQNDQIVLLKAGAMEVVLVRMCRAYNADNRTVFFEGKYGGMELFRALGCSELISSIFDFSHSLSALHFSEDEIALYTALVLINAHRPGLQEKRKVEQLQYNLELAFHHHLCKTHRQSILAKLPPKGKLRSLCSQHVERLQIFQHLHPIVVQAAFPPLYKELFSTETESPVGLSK

[3] = first value of the cell FRET/FF/REN, TR-FRET activity assay, read-out: pIC50 (FRET) (converted)
[4] = second value of the cell, Gal4 reporter gene assay in 293T cells, firefly luciferase
[5] = third value of the cell, Gal4 reporter gene assay in 293T cells, renilla normalised luciferase

| SMILES | IC50 [1, 3] | pIC50 (FF) [2, 4] | pIC50 (REN) [2, 5] | IC50 [1] | pIC50 (FF) [2] | pIC50 (REN) [2] |
| --- | --- | --- | --- | --- | --- | --- |
| Cc1c(C(=O)NC2CCOCC2)cc(-c2ccc(S(=O)(=O)NC(C)C)c(C(F)(F)F)c2)n1CC1CCCCC1 [17/112] | 316 nM | 7.4 | 7.5 | – | – | – |
| Cc1c(C(=O)NC2CCOCC2)cc(-c2cc(C(C)(C)C)cc(C3(C)CC3)c2)n1CC1CCCCC1 [1/84] | – | – | – | 158 nM | 6.8/7.6/7.6 | 6.8/7.6/7.6 |
| Cc1c(C(=O)NCC(C)(C)O)cc(-c2cc(C3(C)CC3)nc(C(C)(C)C)n2)n1CC1CCCCC1 [17/355] | – | – | – | 316 nM | 6.5/6.6/6.6 | 6.5/6.6/6.6 |
| Cc1c(C(=O)NC2CCS(=O)(=O)CC2)cc(-c2ccc(S(=O)(=O)NC(C)(C)C)c(C(C)(C)C)c2)n1CC1CCCCC1 [17/92] | – | – | – | 1000 nM | 6.0/7.3/7.1 | 6.0/7.3/7.1 |
| Cc1c(C(=O)N[C@H]2C[C@H](C(=O)O)C2)cc(-c2cc(C(C)(C)C)cc(C(F)(F)F)c2)n1CC1CCCCC1 [17/304] | 1580 nM | 7.2 | 7.3 | – | – | – |
| COC(C)(C)CNC(=O)c1cc(-c2cc(C(C)(C)C)cc(C3(C)CC3)c2)n(CC2CCCCC2)c1C [17/68] | – | – | – | 158 nM | 6.8/7.4/7.5 | 6.8/7.4/7.5 |
| Cc1c(C(=O)NC2CCOCC2)cc(-c2cc(C(=O)NC(C)(C)C)cc(C3(C)CC3)c2)n1CC1CCCCC1 [17/337] | 1000 nM | 7.7 | 7.8 | – | – | – |
| Cc1c(C(=O)NC2COC2)cc(-c2cc(C(=O)N(C)C(C)(C)C)cc(C(F)(F)F)c2)n1CC1CCCCC1 [15/1] | – | – | – | 2000 nM | 5.7/6.6/6.7 | 5.7/6.6/6.7 |
| COC(=O)CC1(NC(=O)c2cc(-c3cc(C(C)(C)C)cc(C(C)(C)C)c3)n(CC3CCCCC3)c2C)COC1 [17/46] | 316 nM | 6.5/6.5/6.5 | 6.5/6.5/6.5 | – | – | – |
| Cc1c(C(=O)NCC(C)(C)O)cc(-c2cccc3c(S(=O)(=O)NC(C)(C)C)cccc23)n1CC1CCCCC1 [17/76] | 2000 nM | 6.9 | 6.9 | – | – | – |
| Cc1c(C(=O)NCC2(C(=O)O)CCOCC2)cc(-c2cc(C(C)(C)C)cc(C3(C)CC3)c2)n1CC1CCCCC1 [17/61] | 1000 nM | 7.4 | 7.5 | – | – | – |
| Cc1c(C(=O)NCCc2nnn[nH]2)cc(-c2cc(C(C)(C)C)cc(C3(C)CC3)c2)n1CC1CCCCC1 [17/70] | 1260 nM | 7.9 | 7.9 | – | – | – |
| Cc1c(C(=O)NCCC(C)(C)C(=O)O)cc(-c2ccc(S(=O)(=O)NC(C)(C)C(F)(F)F)c(C(F)(F)F)c2)n1CC1CCCCC1 [17/161] | 631 nM | 7.6 | 7.6 | – | – | – |
| COCC(C)(C)NS(=O)(=O)c1ccc(-c2cc(C(=O)NC3CCOCC3)c(C)n2CC2CCCCC2)cc1C(F)(F)F [17/109] | – | – | – | 631 nM | 6.2/7.2/7.3 | 6.2/7.2/7.3 |
| Cc1c(S(=O)(=O)NC(C)(C)C)ccc(-c2cc(C(=O)NCC(C)(C)C(N)=O)c(C)n2CC2CCCCC2)c1Cl [17/371] | 631 nM | 8.0 | 8.0 | – | – | – |
| Cc1c(C(=O)NC2CCOCC2)cc(-c2cc(C(=O)NC(C)(C)C)cc(C(C)(C)O)c2)n1CC1CCCCC1 [17/322] | 3980 nM | 5.9 | 6.0 | – | – | – |
| Cc1c(C(=O)N[C@H]2C[C@H](C(=O)O)C2)cc(-c2cc(OC(F)(F)F)cc(C3(C)CC3)c2)n1CC1CCCCC1 [17/350] | 1000 nM | 7.7 | 7.7 | – | – | – |
| Cc1c(C(=O)NCCCCCO)cc(-c2cc(C(C)(C)C)cc(C3(C)CC3)c2)n1CC1CCCCC1 [1/82] | – | – | – | 158 nM | 6.8/7.4/7.4 | 6.8/7.4/7.4 |
| Cc1c(C(=O)NCC(C)(C)C(=O)O)cc(-c2ccc(S(=O)(=O)NC(C)(C)C)c(C(C)(C)O)c2)n1CC1CCCCC1 [17/327] | 794 nM | 6.8 | 6.9 | – | – | – |
| Cc1c(C(=O)N[C@H]2C[C@H](C(=O)O)C2)cc(-c2cc(C(C)(C)C)c3c(c2)C2(CCO3)CC2)n1CC1CCCCC1 [17/55] | 2000 nM | 7.5 | 7.6 | – | – | – |

| SMILES | IC50 [1, 3] | pIC50 (FF) [2, 4] | pIC50 (REN) [2, 5] | IC50 [1] | pIC50 (FF) [2] | pIC50 (REN) [2] |
| --- | --- | --- | --- | --- | --- | --- |
| Cc1c(C(=O)NC2(C)COC2)cc(-c2cc(C(C)(C)C)c3c(c2)C2(CCO3)CC2)n1CC1CCCCC1 [17/13] | – | – | – | 631 nM | 6.2/6.8/6.9 | 6.2/6.8/6.9 |
| Cc1c(C(=O)NCC2(C(=O)O)CCOCC2)cc(-c2ccc(S(=O)(=O)NC(C)(C)C)c(C(F)(F)F)c2)n1CC1CCCCC1 [17/201] | 794 nM | 5.7 | 5.7 | – | – | – |
| Cc1c(C(N)=O)cc(-c2cc(C3CC3)cc(C(C)(C)C)c2)n1CC1CCCCC1 [Example 12, 5-(3-(tert-Butyl)-5-cyclopropylphenyl)-1-(cyclohexylmethyl)-2-methyl-1H-pyrrole-3-carboxamide] | 1000 nM | 6.1 | 6.2 | – | – | – |
| Cc1c(C(=O)NCC2(O)CC[S+]([O-])CC2)cc(-c2cc(C(C)(C)C)c3c(c2)C2(CCO3)CC2)n1CC1CCCCC1 (stereo not drawn) [17/38] | 1000 nM | 6.7 | 6.7 | – | – | – |
| Cc1c(C(=O)NCC(C)(C)NS(C)(=O)=O)cc(-c2ccc(S(=O)(=O)NC(C)(C)C)c(C(C)(C)C)c2)n1CC1CCCCC1 [1/123] | 501 nM | 6.8 | 6.8 | – | – | – |
| Cc1c(C(=O)NC2CCOCC2)cc(-c2ccc(S(=O)(=O)NC(=O)C(C)(C)C)c(C(F)(F)F)c2)n1CC1CCCCC1 [17/258] | 7940 nM | < 4.7 | < 4.7 | – | – | – |
| Cc1c(C(=O)NC23CCC(C(=O)O)(CC2)CC3)cc(-c2cc(C(C)(C)O)cc(C3(C)CC3)c2)n1CC1CCCCC1 [17/302] | 1580 nM | 7.3 | 7.2 | – | – | – |
| Cc1c(C(=O)NC2CCOCC2)cc(-c2ccc(S(=O)(=O)NC(C)(C)CF)c(C(F)(F)F)c2)n1CC1CCCCC1 [18/5] | – | – | – | 631 nM | 6.2/7.5/7.5 | 6.2/7.5/7.5 |
| Cc1c(C(=O)NC2CCOCC2)cc(-c2ccc(S(=O)(=O)NC(C)(C)C)c3cccnc23)n1CC1CCCCC1 [17/282] | 2000 nM | 6.6 | 6.7 | – | – | – |
| Cc1c(C(=O)NC2CCOCC2)cc(-c2cc(C(F)(F)F)c3c(c2)C(C)(C)C(=O)N3C)n1CC1CCCCC1 [17/148] | 794 nM | 7.0 | 7.0 | – | – | – |
| Cc1c(C(=O)NC2C[S+]([O-])C2)cc(-c2cc(C(C)C)c3c(c2)C(C)(C)N(C(C)C)S3(=O)=O)n1CC1CCCCC1 (stereo not drawn) [2/3] | 1580 nM | 6.5 | 6.7 | – | – | – |
| Cc1c(C(=O)NC2CCOCC2)cc(-c2ccc(S(=O)(=O)NC(C)(C)C)c3c(F)cccc23)n1CC1CCCCC1 [17/363] | 1000 nM | 7.4 | 7.5 | – | – | – |
| Cc1c(C(=O)NC2CC2)cc(-c2ccc(S(=O)(=O)NC(C)(C)C)c(C(C)(C)C)c2)n1CC1CCCCC1 [17/99] | 251 nM | 6.9 | 7.0 | – | – | – |
| Cc1c(C(=O)N[C@H]2C[C@H](C(=O)O)C2)cc(-c2cc(C(C)(C)C)cc(C3(O)CC3)c2)n1CC1CCCCC1 [17/155] | 631 nM | 7.0 | 7.0 | – | – | – |
| Cc1c(C(=O)NCC(C)(C)C(=O)O)cc(-c2ccc(S(=O)(=O)NC(C)(C)C)c(C(C)(C)C)c2)n1CC1CCCCC1 [1/129] | 1580 nM | 7.3 | 7.3 | – | – | – |
| Cc1c(C(=O)NC2COC2)cc(-c2cc(C(=O)N3CCCCC3)c3ccccn23)n1CC1CCCCC1 [Example 10/1] | 15800 nM | 6.7 | 6.6 | – | – | – |
| Cc1c(C(=O)N[C@H]2C[C@H](C(=O)O)C2)cc(-c2cc(C(=O)NCC(F)(F)F)cc(C3(C)CC3)c2)n1CC1CCCCC1 [17/357] | 2000 nM | 6.7 | 6.8 | – | – | – |
| Cc1c(C(=O)NC2COC2)cc(-c2cc(C(=O)N(C)C(C)(C)C)cc(C(C)(C)C)c2)n1CC1CCCCC1 [15/4] | – | – | – | 1580 nM | 5.8/7.3/7.3 | 5.8/7.3/7.3 |
| Cc1c(C(=O)NC2CCOCC2)cc(-c2ccc(S(=O)(=O)NC(C)(C)C)c(C(F)F)c2)n1CC1CCCCC1 [17/115] | – | – | – | 316 nM | 6.5/7.9/8.0 | 6.5/7.9/8.0 |
| Cc1c(C(=O)NCC(C)(C)C(=O)O)cc(-c2cc(C(=O)NC(C)(C)C)cc(C3(C)CC3)c2)n1CC1CCCCC1 [17/338] | 3160 nM | 7.2 | 7.2 | – | – | – |
